Experimental data: ChEMBL document CHEMBL4321843, “Discovery of small-molecule candidates against inflammatory bowel disease” (Eur J Med Chem, 2020)

Key:
Type in all cases: functional
Mus musculus [1] = assay: Anti-colitis activity in C57BL/6 (B6) mouse model of DSS-induced colitis assessed as disease activity index at 100 mg/kg, ig pretreated for 3 days followed by DSS treatment for 7 days (reference value: 5.67 +/- 1.03)
Rattus norvegicus [2] = assay: Anti-colitis activity in Sprague-Dawley rat model of acetic acid-induced colitis assessed as colon mucosa damage index at 50 mg/kg, po administered for 7 consecutive days and measured on day 8 (reference value: 3.3 +/- 0.6)
Rattus norvegicus [3] = assay: Anti-colitis activity in Sprague-Dawley rat model of acetic acid-induced colitis assessed as disease activity index at 50 mg/kg, po administered for 7 consecutive days and measured on day 8 (reference value: 3.9 +/- 0.4)
Rattus norvegicus [4] = assay: Anti-colitis activity in Sprague-Dawley rat model of acetic acid-induced colitis assessed as histological scores at 50 mg/kg, po administered for 7 consecutive days and measured on day 8 (reference value: 9.3 +/- 2.8)
Rattus norvegicus [5] = assay: Antiinflammatory activity in Sprague-Dawley rat model of acetic acid-induced colitis assessed as reduction in IFNgamma level in serum at 50 mg/kg, po administered for 7 consecutive days and measured on day 8 by ELISA method
Mus musculus [6] = assay: Anti-colitis activity in ICR mouse model of DSS-induced colitis assessed as inhibition of DSS-induced colorectum shortening at 6 mg, po for 14 days relative to control
Mus musculus [7] = assay: Anti-colitis activity in ICR mouse model of DSS-induced colitis assessed as reduction in DSS-induced body weight loss at 6 mg, po for 14 days relative to control; parameters: scale not given: the % may be the effect or the level left

`O=C(O)[C@H]1O[C@@H](Oc2cc3oc(-c4ccccc4)cc(=O)c3c(O)c2O)[C@H](O)[C@@H](O)[C@@H]1O` [BAICALIN] was tested, and the Activity_index (Mus musculus [1]) was 3.33.

`O=C(O[C@@H]1Cc2c(O)cc(O)cc2O[C@@H]1c1cc(O)c(O)c(O)c1)c1cc(O)c(O)c(O)c1` [EPIGALOCATECHIN GALLATE] gave an Activity_index (Rattus norvegicus [2]) of 1.5, an Activity_index (Rattus norvegicus [3]) of 1.1 and an Activity (Rattus norvegicus [4]) of 4.6. The Activity (Rattus norvegicus [5]) was 33.3 pg/mL.

`O=c1c(O)c(-c2ccc(O)c(O)c2)oc2cc(O)cc(O)c12` [QUERCETIN] was tested, and the “inhibition (INH)” value (Mus musculus [6]) was 18% and the Activity (Mus musculus [7]) was 21%.

In the case of `C[C@@H]1O[C@@H](OC[C@H]2O[C@@H](Oc3c(-c4ccc(O)c(O)c4)oc4cc(O)cc(O)c4c3=O)[C@H](O)[C@@H](O)[C@@H]2O)[C@H](O)[C@H](O)[C@H]1O` [RUTIN], the “inhibition (INH)” value (Mus musculus [6]) is reported as 73% and the Activity (Mus musculus [7]) is reported as 54%.
